Consider 2 compounds from patent publication US11826373B2, “Methods for treatment of diseases” (Galera Labs, LLC, priority 2011, dated 2023).

Bounds are passed on as bounds.

One data set concerns beagle dogs. In words: GC4403 7-day IV toxicity in dog. The format is in vivo. Particulars: 7 days. The procedure: GC4403 in 26 mM sodium bicarbonate/0.9% sodium chloride was administered to beagle dogs (4/sex/group) IV (slow bolus injection over at least 1 minute) at dosages of 0, 1, 3 or 6 mg/kg/day for 7 days. There was no mortality during the study. […] At 6 mg/kg/day, animals also had tremors, abnormal stance and gait, inability to stand and prostration. Generally, clinical signs had resolved by two hours after dose administration. As the study progressed, some clinical signs (tremors, inability to stand, prostration and abnormal stance and gait) lessened slightly. […] The lower white cell counts correlated with lower absolute neutrophil and eosinophil counts at ≥3 mg/kg/day, which were, however, within the normal historical values for these parameters. At necropsy, there were no changes in organ weights compared to control animals nor were there macroscopic or microscopic changes in any organs with the exception of fibrosis in the heart of one male at 3 mg/kg/day and 1 male at 6 mg/kg/day.

Another data set relates to SD rats. Put plainly: Rat GC4403 7-day intravenous toxicity. The class given is in vivo. As for the experimental part: GC4403 was Studied in a GLP toxicology study in which it was administered in 26 mM sodium bicarbonate/0.9% sodium chloride to SD rats (10/sex/group) IV (slow bolus 1 mL/kg/minute) at dosages of 0, 1, 3 or 10 mg/kg/day for 7 days (On Day 1, 1/10 male rats receiving 10 mg/kg/day died). The dosage was therefore decreased to 8 mg/kg/day on Day 2 for all surviving animals for the remainder of the study, and the original 10 mg/kg/day group was re-designated as the 8 mg/kg/day group. On Day 4, two females from the 8 mg/kg/day group also died. Clinical signs immediately following dose administration of 8 mg/kg/day were twitching, labored breathing, body drop and prostration. At the scheduled 1-hour observation time, animals appeared normal. Males and females given 8 mg/kg/day had decreased body weight gains, which were accompanied by decreased food consumption in the males only. […] Surviving rats were sacrificed, and all rats sacrificed or found dead were necropsied.

The nature of data set [1]: Activity toward hydrogen peroxide. The format is biochemical.
A further data set has as its system Rats. In words: Rat GC4419 7-day IV study. The class given is in vivo. As for the experimental part:
A GLP toxicity study with GC4419 in bicarbonate buffer was performed. Rats (5/sex/group) were administered GC4419 as a 15 minute IV injection (4 mL/kg) at 0, 5, 10 or 15 mg/kg for 7 consecutive days. The control group received bicarbonate buffer. Evaluations for compound-related effects were based on clinical observations, body weight and food consumption. There were no deaths during the study and there were no signs of significant compound effects at any dosage.

The next data set concerns healthy subjects. In words: Human Phase 1 single rising dose safety and tolerability of GC4419. The class given is in vivo. As for the experimental part: A human clinical trial entitled, “A Double-Blind, Placebo-Controlled, Single Rising Dose Study to Evaluate the Safety and Tolerability and Determine the Pharmacokinetics of M40419 Administered as a I5-Minute Intravenous Infusion in Healthy Subjects,” was conducted on 54 subjects. This was a single center, randomized, placebo-controlled, sequential panel, single dose safety, tolerability, and pharmacokinetic study of GC4419 administered as a 75-mL IV infusion over 15 minutes in escalating doses of 10 mg, 15 mg, 22 mg, 33 mg, 50 mg, 75 mg, and 112 mg. The study consisted of two phases: the first phase was a dose escalation with six subjects (four active and two placebo) in each cohort to determine a Maximum Tolerated Dose (MTD); the second phase was a repeat of the MTD dose in 12 subjects (eight active drug and four placebo) to confirm the MTD or safety of highest dose tested. The study population was comprised of 54 healthy male and female subjects (36 males, 18 females) between the ages of 18 and 50 years considered eligible on the basis of inclusion and exclusion criteria. There were four active and two placebo subjects for each dose level in the escalating dose phase of the study, and eight active and four placebo subjects for the confirmation of MTD phase.
All subjects receiving a dose of study medication were evaluated for safety. The safety of the drug product was assessed based on: treatment-emergent adverse events (TEAEs), clinical laboratory evaluations, vital signs, 12-lead electrocardiograms (ECGs) and standard ECG parameters including PR, QRS, QT, and QTc intervals.

[2] abbreviates: single intravenous infusion over 15 minutes, healthy subjects.

`[Cl][Mn-5]1234([Cl])[n+]5c6cccc5C[NH+]1[C@@H]1CCCC[C@H]1[NH+]2CC[NH+]3[C@@H]1CCCC[C@H]1[NH+]4C6` (stereo partly drawn) [GC4403]: the mortality result in the data set on beagle dogs (dog, 1, 3 or 6 mg/kg/day IV) is on record as “no mortality”. In addition, the “no observed toxic event level (NOTEL)” value is recorded as 3 mg/kg/day in the data set with beagle dogs (dog, IV slow bolus injection) and 3 mg/kg/day with SD rats (rat, IV slow bolus injection, 7 days). In addition, the “dosage at which clinical signs immediately after dose administration were observed” value with beagle dogs (dog, IV slow bolus, scratching, facial swelling, raised red areas, partial closing of the eyes) is not below 3 mg/kg/day. In addition, the “mortality, females died” value in the data set on SD rats (8 mg/kg/day group, Day 4) is “two”. Besides, the “mortality, male rats died” value with SD rats (10 mg/kg/day, Day 1) is listed as 1/10.
On to `[Cl][Mn-5]1234([Cl])[n+]5c6cccc5C[NH+]1[C@H]1CCCC[C@@H]1[NH+]2CC[NH+]3[C@H]1CCCC[C@@H]1[NH+]4C6` (stereo partly drawn) [GC4419], for which the “activity toward hydrogen peroxide” value in data set [1] is “no detectable activity”. Moreover, in the data set on Rats (males given 15 mg/kg/day, by Day 8), the “decrease in body weight” value is “approximately 10%”. The mortality result in the data set on Rats (rats, 5, 10 or 15 mg/kg, 7 days) is listed as “no deaths”. The NOTEL in the data set with Rats (rats, males and females, 15 minute IV injection, 7 consecutive days) was determined as 15 mg/kg. Besides, the “subjects who experienced at least one TEAE” value in the data set on healthy subjects (30 of 36 subjects who received trial material, 10-112 mg) worked out at 83.3%. Further, in the data set on healthy subjects (healthy subjects), the “tolerability of single doses up to 112 mg” value is on record as “no serious adverse events”; the “tolerability of single intravenous doses from 10 mg to 50 mg” value was “safe and well tolerated with no adverse events”. Further, in the data set with healthy subjects (setting [2]), the “MTD initially defined in the dose escalation phase” value is given as 75 mg and the “maximum tolerated dose (MTD), final” value stood at 50 mg.
